Values quoted from earlier work in US11590077B2, “Fulvestrant formulations and methods of their use” (EAGLE PHARMACEUTICALS, INC., priority 2017, dated 2023).

Conditions: background statement

- aqueous solubility: extremely low
SMILES: C[C@]12CC[C@@H]3c4ccc(O)cc4C[C@@H](CCCCCCCCC[S+]([O-])CCCC(F)(F)C(F)(F)F)[C@H]3[C@@H]1CC[C@@H]2O (stereo partly shown) [Fulvestrant, 7-(9-(4,4,5,5,5-pentafluoropentylsulfinyl)nonyl) estra-1,3,5(10)-triene-3,17-diol]
